Data from ChEMBL document CHEMBL1201862, “PubChem BioAssay data set” (2004).
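Assay format: 96-well plates, 48-hour exposure. Here, GI50 denotes the concentration required for 50% inhibition of growth.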 The source made the active and inactive calls. Cut-off read from the data, not from the text of the source: active = GI50 up to about 1.1 µM and inactive = higher.

Tests used:
Test in all cases: inhibition of tumour cell growth, NCI panel, 48 h
UO-31 = tested on: UO-31
NCI-H226 = tested on: NCI-H226
786-0 = tested on: 786-0
CAKI-1 = tested on: CAKI-1
SF-539 = tested on: SF-539
MOLT-4 = tested on: MOLT-4
UACC-62 = tested on: UACC-62
OVCAR-8 = tested on: OVCAR-8
HCC 2998 = tested on: HCC 2998
LOX IMVI = tested on: LOX IMVI
CCRF-CEM = tested on: CCRF-CEM
HOP-62 = tested on: HOP-62
PC-3 = tested on: PC-3
SK-MEL-5 = tested on: SK-MEL-5
M14 = tested on: M14
COLO 205 = tested on: COLO 205
NCI-H23 = tested on: NCI-H23
IGROV-1 = tested on: IGROV-1
K562 = tested on: K562

Measured: GI50

CC[C@H](C)[C@H](NC(=O)N(CCC#N)CCN(CCN(C(=O)N[C@@H](Cc1ccccc1)C(=O)OC)c1ccccc1)C(=O)N[C@H](C(=O)OC)C(C)C)C(=O)OC
inactive: UO-31 18.1 µM | NCI-H226 21.5 µM | 786-0 4.68 µM | CAKI-1 19.8 µM | SF-539 23.6 µM | MOLT-4 4.57 µM | UACC-62 11.5 µM | OVCAR-8 22.6 µM | HCC 2998 19 µM | LOX IMVI 20.7 µM | CCRF-CEM 22.8 µM | HOP-62 20.5 µM | PC-3 16.1 µM | SK-MEL-5 20.5 µM | M14 20.5 µM | COLO 205 24.2 µM | NCI-H23 19.9 µM | IGROV-1 19.1 µM

C=CCNC(=O)/C(Cc1cc(Br)c(OC)c(Br)c1O)=N\O
inactive: UO-31 3.49 µM | NCI-H226 2.59 µM | 786-0 2.61 µM | CAKI-1 5.18 µM | SF-539 3.6 µM | MOLT-4 4.76 µM | UACC-62 8.75 µM | OVCAR-8 4.65 µM | HCC 2998 4.25 µM | LOX IMVI 5.68 µM | HOP-62 2.79 µM | PC-3 6.46 µM | SK-MEL-5 1.78 µM | M14 4.22 µM | COLO 205 12.3 µM | NCI-H23 4.16 µM | K562 2.37 µM | IGROV-1 4.57 µM

CCOC(=O)CC1(N)CC2c3ccccc3OC(=O)C2C(=O)N1 (stereo unspecified)
inactive: UO-31 > 100 µM | NCI-H226 > 100 µM | 786-0 > 100 µM | CAKI-1 > 100 µM | MOLT-4 > 100 µM | UACC-62 > 100 µM | OVCAR-8 > 100 µM | HCC 2998 > 100 µM | LOX IMVI > 100 µM | CCRF-CEM > 100 µM | HOP-62 > 100 µM | PC-3 > 100 µM | M14 > 100 µM | COLO 205 > 100 µM | NCI-H23 > 100 µM | K562 > 100 µM | IGROV-1 > 100 µM

CC(=O)NN(c1ccccc1)C1CCN(c2ccccc2)N1C(C)=O (stereo unspecified)
inactive: UO-31 3.1 µM | NCI-H226 > 10 µM | 786-0 > 10 µM | CAKI-1 4.12 µM | SF-539 4.85 µM | MOLT-4 4.74 µM | OVCAR-8 > 10 µM | HCC 2998 3.82 µM | LOX IMVI 4.58 µM | CCRF-CEM > 10 µM | HOP-62 > 10 µM | PC-3 4 µM | SK-MEL-5 > 10 µM | M14 > 10 µM | COLO 205 3.13 µM | NCI-H23 > 10 µM | K562 2.32 µM | IGROV-1 > 10 µM

O=c1cc(N2CCCC2)[nH]c(=O)n1-c1ccc(F)cc1
inactive: NCI-H226 20.3 µM | 786-0 > 100 µM | CAKI-1 > 100 µM | SF-539 > 100 µM | MOLT-4 > 100 µM | UACC-62 > 100 µM | OVCAR-8 > 100 µM | HCC 2998 > 100 µM | LOX IMVI > 100 µM | CCRF-CEM > 100 µM | HOP-62 > 100 µM | PC-3 > 100 µM | M14 > 100 µM | COLO 205 > 100 µM | NCI-H23 > 100 µM | K562 > 100 µM | IGROV-1 > 100 µM

CC(=O)Oc1ccc2cc(Oc3ccc(Cl)c(Cl)c3)c(=O)oc2c1
inactive: UO-31 15.5 µM | NCI-H226 26.6 µM | 786-0 19.5 µM | CAKI-1 20.3 µM | SF-539 19.7 µM | MOLT-4 18.3 µM | OVCAR-8 32 µM | HCC 2998 19.5 µM | LOX IMVI 19.7 µM | CCRF-CEM 18.3 µM | HOP-62 25.2 µM | PC-3 24.7 µM | SK-MEL-5 20.3 µM | M14 38.5 µM | NCI-H23 35.6 µM | K562 25.4 µM | IGROV-1 29.4 µM

CC12OC1(C)C1C(=O)OCC1C2=O (stereo unspecified)
inactive: UO-31 > 100 µM | NCI-H226 45.9 µM | 786-0 70 µM | CAKI-1 29.2 µM | SF-539 32.5 µM | UACC-62 99.3 µM | OVCAR-8 49.9 µM | HCC 2998 > 100 µM | LOX IMVI > 100 µM | CCRF-CEM 17.5 µM | HOP-62 41 µM | PC-3 52.8 µM | SK-MEL-5 > 100 µM | M14 49.4 µM | COLO 205 37.4 µM | NCI-H23 > 100 µM | K562 28.2 µM | IGROV-1 32.4 µM

O=c1[nH]c(=O)n(Cc2ccccc2CO)cc1Sc1ccccc1
inactive: UO-31 7.4 µM | NCI-H226 22.4 µM | 786-0 47.2 µM | CAKI-1 13.5 µM | SF-539 23.2 µM | MOLT-4 54.5 µM | UACC-62 31.3 µM | OVCAR-8 17.7 µM | HCC 2998 15.7 µM | CCRF-CEM 28.7 µM | HOP-62 32.8 µM | PC-3 33 µM | SK-MEL-5 10.1 µM | M14 19.7 µM | COLO 205 37.2 µM | NCI-H23 17.4 µM | K562 6.78 µM | IGROV-1 12.3 µM
